The record followed here is the Kinase Knowledgebase extract (Sharma et al. 2016).

This assay deals with EGFR (UniProt P00533).

Converted amounts (≈) assume the structure as drawn. “And” between values parts separate entries of the source, which are not always exact repeats. Equal entries are not always repeated.

Sequence of EGFR (P00533 whole entry, looked up): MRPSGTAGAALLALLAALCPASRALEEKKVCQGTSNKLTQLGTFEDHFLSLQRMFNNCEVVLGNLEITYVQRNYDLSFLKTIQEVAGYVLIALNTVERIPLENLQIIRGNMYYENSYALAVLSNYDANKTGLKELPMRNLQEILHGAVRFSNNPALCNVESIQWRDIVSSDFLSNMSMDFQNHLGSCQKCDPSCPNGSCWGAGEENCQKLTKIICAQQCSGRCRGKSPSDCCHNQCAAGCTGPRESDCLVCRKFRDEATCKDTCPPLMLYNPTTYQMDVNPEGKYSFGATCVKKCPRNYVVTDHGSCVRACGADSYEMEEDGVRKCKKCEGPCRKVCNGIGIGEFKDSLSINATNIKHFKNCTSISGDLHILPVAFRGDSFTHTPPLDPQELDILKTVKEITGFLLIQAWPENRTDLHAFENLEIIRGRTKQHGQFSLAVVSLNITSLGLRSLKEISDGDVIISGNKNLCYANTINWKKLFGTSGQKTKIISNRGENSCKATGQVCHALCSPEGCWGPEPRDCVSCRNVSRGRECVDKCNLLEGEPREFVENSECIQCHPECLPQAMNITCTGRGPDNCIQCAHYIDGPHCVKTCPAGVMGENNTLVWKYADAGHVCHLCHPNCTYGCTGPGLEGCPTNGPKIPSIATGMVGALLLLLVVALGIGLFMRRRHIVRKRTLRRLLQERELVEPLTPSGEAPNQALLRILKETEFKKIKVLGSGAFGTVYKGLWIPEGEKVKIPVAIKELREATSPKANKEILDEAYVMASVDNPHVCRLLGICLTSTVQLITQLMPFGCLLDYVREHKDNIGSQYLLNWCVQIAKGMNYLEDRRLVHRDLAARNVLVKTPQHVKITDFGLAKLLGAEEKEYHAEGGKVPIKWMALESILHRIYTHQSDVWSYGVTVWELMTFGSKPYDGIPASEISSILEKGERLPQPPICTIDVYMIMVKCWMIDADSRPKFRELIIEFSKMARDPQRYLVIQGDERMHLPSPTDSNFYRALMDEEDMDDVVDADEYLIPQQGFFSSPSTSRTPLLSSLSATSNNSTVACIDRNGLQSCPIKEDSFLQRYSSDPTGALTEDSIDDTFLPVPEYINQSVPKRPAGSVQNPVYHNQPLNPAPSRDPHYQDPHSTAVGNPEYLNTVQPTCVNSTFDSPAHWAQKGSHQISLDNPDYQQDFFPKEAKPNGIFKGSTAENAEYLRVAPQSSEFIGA

Take `CN(c1cccc(Cl)c1)c1ncnc(Nc2cccc(CC(=O)O)c2)n1`: the half-maximal inhibitory concentration (IC50) is less than 0.4 µg/mL.
Then `COc1cc(NC(=O)Nc2ncnc(Nc3cc(OC)c(OC)c(OC)c3)n2)cc(OC)c1`, with greater than 4.5 µg/mL.
The figure for `COc1cc(C)c(Nc2ncnc(-c3cccs3)n2)cc1OC` is greater than 4.5 µg/mL; for `COc1cc(Nc2ncnc(-n3c(NCC(N)=O)nc4ccccc43)n2)cc(OC)c1OC` it is greater than 4.5 µg/mL; for `NC(=O)Cc1cccc(Nc2ncnc(-n3c(N)nc4ccccc43)n2)c1` it is greater than 4.5 µg/mL.
The figure for `COc1cc(Nc2ncnc(Nc3cc(OC)c(OC)c(OC)c3)n2)cc(OC)c1` is greater than 4.5 µg/mL; for `COc1cc(Nc2ncnc(-c3ccsc3)n2)cc(OC)c1OC` it is greater than 4.5 µg/mL; for `COc1cc(Nc2ncnc(-n3c(N)nc4ccccc43)n2)ccc1OCCn1ccnn1` it is greater than 4.5 µg/mL.
`CN(c1cccc(Cl)c1)c1ncnc(Nc2ccccc2)n1` displayed a half-maximal inhibitory concentration (IC50) of less than 0.4 µg/mL.
The compound `CCc1ccccc1Nc1ncnc(-n2cccc2)n1` yielded a 50% inhibitory concentration (IC50) greater than 4.5 µg/mL.
Then `COc1cc(OC)cc(-c2nnc(Nc3ncnc(Nc4cc(OC)c(OC)c(OC)c4)n3)[nH]2)c1`, with greater than 4.5 µg/mL; and `COc1cc(Nc2ncnc(N(CCO)c3ccccc3)n2)cc(OC)c1OC`, with less than 0.4 µg/mL.
Then `COc1cc(Nc2ncnc(-c3cccnc3NCc3ccccc3)n2)cc(OC)c1OC`, with greater than 4.5 µg/mL.
The figure for `COC(=O)c1sccc1Nc1ncnc(Nc2cc(OC)c(OC)c(OC)c2)n1` is greater than 4.5 µg/mL; for `COc1ccc(Nc2ncnc(Nc3ccc(N(C)C)cc3)n2)cc1OC` it is greater than 4.5 µg/mL; for `COc1cc(Nc2ncnc(-n3c(Nc4ccc(OC(F)(F)F)cc4)nc4ccccc43)n2)cc(OC)c1OC` it is 2.4 to 3.5 µg/mL (≈ 4.34 to 6.32 µM).
Compound `COc1cc(Nc2ncnc(-c3cccnc3Nc3ccc(Oc4ccccc4)cc3)n2)cc(OC)c1OC` showed a half-inhibitory concentration (IC50) greater than 4.5 µg/mL.
The figure for `O=c1[nH]c2ccccc2n1-c1ncnc(Nc2ccccn2)n1` is greater than 4.5 µg/mL; for `COc1ccc(Nc2ncnc(NCCCOC(C)C)n2)cc1OC` it is greater than 4.5 µg/mL; for `COc1cc(Nc2ncnc(-n3c(N)nc4ccccc43)n2)ccc1OCCN1CCOCC1` it is greater than 4.5 µg/mL.
Take `Cc1ccc2c(c1)CCCN2c1ncnc(Nc2ccc3ncsc3c2)n1`: the half-maximal inhibitory concentration (IC50) was 0.4 to 2.4 µg/mL (≈ 1.07 to 6.41 µM).
In turn, `Cc1ccc2c(c1)CCCN2c1ncnc(NCCc2c[nH]c3ccccc23)n1` came in with a half-inhibitory concentration (IC50) greater than 4.5 µg/mL.
Turning to `CN(c1cccc(Cl)c1)c1ncnc(Nc2cc(Cl)c(Cl)c(Cl)c2)n1`, the concentration for half-maximal inhibition (IC50) was greater than 4.5 µg/mL.
Then `COc1ccc(Nc2ncnc(-c3ccccc3)n2)cc1`, with greater than 4.5 µg/mL.
Turning to `COc1cc(Nc2ncnc(-n3c(NCCCc4ccccc4)nc4ccccc43)n2)cc(OC)c1OC`, the concentration for half-maximal inhibition (IC50) is greater than 4.5 µg/mL.
For the compound `COc1cc(Nc2ncnc(-n3c(NC4CCCc5ccccc54)nc4ccccc43)n2)cc(OC)c1OC` (configuration not stated), the IC50 is 3.5 to 4.5 µg/mL and 2.4 to 3.5 µg/mL.
Regarding `c1csc(-c2ncnc(Nc3ccc(N4CCOCC4)cc3)n2)c1`, the IC50 is greater than 4.5 µg/mL.
Then `C=CCNc1ncccc1-c1ncnc(Nc2cc(OC)c(OC)c(OC)c2)n1`, with greater than 4.5 µg/mL.
For `COc1ccc([C@H](C)Nc2nc3ccccc3n2-c2ncnc(Nc3cc(OC)c(OC)c(OC)c3)n2)cc1`, the IC50 was greater than 4.5 µg/mL.
In turn, `COc1ccc(-c2cn[nH]c2Nc2ncnc(Nc3cc(OC)c(OC)c(OC)c3)n2)cc1OC` gave an IC50 of 3.5 to 4.5 µg/mL (≈ 7.3 to 9.38 µM).
The figure for `OCc1cccc(Nc2ncnc(-c3cccnc3Nc3ccccc3)n2)c1` is 0.4 to 2.4 µg/mL (≈ 1.08 to 6.48 µM).
Regarding `COc1cc(Nc2ncnc(-n3ccc4cc(Cl)ccc43)n2)cc(OC)c1OC`, the IC50 is greater than 4.5 µg/mL.
For the compound `COc1cc(Nc2ncnc(-n3ncc(-c4ccccc4)c3N)n2)cc(OC)c1OC`, the 50% inhibitory concentration (IC50) fell in the range of 2.4 to 3.5 µg/mL (≈ 5.72 to 8.34 µM).
The figure for `COc1cccc(Nc2ncccc2-c2ncnc(Nc3cc(OC)c(OC)c(OC)c3)n2)c1` is 3.5 to 4.5 µg/mL (≈ 7.6 to 9.77 µM); for `COc1cc(Nc2ncnc(-n3c(NCc4ccc(Cl)cc4F)nc4ccccc43)n2)cc(OC)c1OC` it is greater than 4.5 µg/mL; for `COc1cc(Nc2ncnc(Nc3cccc(O)c3)n2)cc(OC)c1OC` it is less than 0.4 µg/mL.
The compound `CCOC(=O)c1cccc(Nc2ncnc(Nc3cc(-c4ccc(C(=O)OC)cc4)n[nH]3)n2)c1` gave an IC50 greater than 4.5 µg/mL.
The figure for `COc1cccc(Nc2ncnc(Nc3cc(-c4ccccc4)n[nH]3)n2)c1` is 0.4 to 2.4 µg/mL (≈ 1.11 to 6.68 µM); for `COc1cc(C)c(Nc2ncnc(Nc3cc(-c4ccccc4)n[nH]3)n2)cc1OC` it is 0.4 to 2.4 µg/mL (≈ 0.991 to 5.95 µM); for `COc1cc(Nc2ncnc(Nc3cc(-c4ccc(C)cc4)n[nH]3)n2)cc(OC)c1OC` it is 0.4 to 2.4 µg/mL (≈ 0.923 to 5.54 µM).
As for `NC(=O)Cc1cccc(Nc2ncnc(-n3c(NCc4ccccc4)nc4ccccc43)n2)c1`, the IC50 is less than 0.4 µg/mL.
The figure for `COc1cc(Nc2ncnc(Nc3cnc4ccccc4c3)n2)cc(OC)c1OC` is 0.4 to 2.4 µg/mL (≈ 0.989 to 5.93 µM); for `COc1ccc(Nc2ncnc(Nc3cc(OC)c(OC)c(OC)c3)n2)cc1OC` it is 3.5 to 4.5 µg/mL (≈ 8.47 to 10.9 µM); for `NCCCNc1ncnc(-c2ccccc2)n1` it is greater than 4.5 µg/mL.
Compound `COc1cc(Nc2ncnc(Nc3cc(C(F)(F)F)ccc3F)n2)cc(OC)c1OC` registered a 50% inhibitory concentration (IC50) of less than 0.4 µg/mL.
The compound `COc1cc(Nc2ncnc(N3CCc4ccccc43)n2)cc(OC)c1OC` came in with an IC50 greater than 4.5 µg/mL.
`COCCOc1ccc(Nc2ncnc(Nc3ccc(C)c(F)c3)n2)cc1OCCOC` returned an IC50 greater than 4.5 µg/mL.
Then `CN(c1cccc(Cl)c1)c1ncnc(Nc2ccc3c(cnn3Cc3ccccc3)c2)n1`, with 0.4 to 2.4 µg/mL (≈ 0.905 to 5.43 µM); and `CC(=O)Nc1ccc(Nc2ncnc(-c3cccs3)n2)cc1`, with greater than 4.5 µg/mL.
The figure for `CCOC(=O)Cc1ccc(Nc2ncnc(Nc3cc(-c4ccco4)n[nH]3)n2)cc1` is 0.4 to 2.4 µg/mL (≈ 0.987 to 5.92 µM).
The figure for `COc1cc(Nc2ncnc(Cc3ccc4c(cnn4Cc4ccccc4)c3)n2)cc(OC)c1OCCN1CCOCC1` is less than 0.4 µg/mL.
For the compound `O=c1[nH]c2ccccc2n1-c1ncnc(Nc2cccc(-c3cnco3)c2)n1`, the concentration for half-maximal inhibition (IC50) lay within 0.4 to 2.4 µg/mL (≈ 1.08 to 6.46 µM).
Then `NC(=O)[C@H](CO)Nc1ncnc(-n2c(=O)[nH]c3ccccc32)n1`, with greater than 4.5 µg/mL.
`COC(=O)c1cccc(Nc2nc3ccccc3n2-c2ncnc(Nc3cc(OC)c(OC)c(OC)c3)n2)c1`: the IC50 was greater than 4.5 µg/mL.
In the case of `COC(=O)c1ccc(-c2cc(Nc3ncnc(NC4=NC(=O)CS4)n3)[nH]n2)cc1`, the IC50 lay within 0.4 to 2.4 µg/mL (≈ 0.975 to 5.85 µM).
Then `COc1cc(Nc2ncnc(Nc3ccccc3F)n2)cc(OC)c1OC`, with less than 0.4 µg/mL.
Then `COc1cc(Nc2ncnc(Nc3ccc(Cl)c4ccccc34)n2)cc(OC)c1OC`, with less than 0.4 µg/mL.
The figure for `COc1cc(Nc2ncnc(-n3c(NCCO)nc4ccccc43)n2)cc(OC)c1OC` is greater than 4.5 µg/mL; for `COc1cc(Nc2ncnc(Nc3ccc(N4CCCCC4)cc3)n2)cc(OC)c1OC` it is 0.4 to 2.4 µg/mL (≈ 0.916 to 5.5 µM).
In turn, `O=C(Nc1cccc(Nc2ncnc(-n3c(=O)[nH]c4ccccc43)n2)c1)O[C@@H]1CCOC1` returned a half-maximal inhibitory concentration (IC50) of 2.4 to 3.5 µg/mL (≈ 5.54 to 8.08 µM).
On to `COc1cc(Nc2ncnc(-c3cccnc3NCCC(C)(C)C)n2)cc(OC)c1OC`, for which the concentration for half-maximal inhibition (IC50) was greater than 4.5 µg/mL.
`COc1cc(Nc2ncnc(Nc3cccc(C(=O)O)c3)n2)cc(OC)c1OC` returned a half-maximal inhibitory concentration (IC50) of less than 0.4 µg/mL.
`COc1cc(Nc2ncnc(-c3cccnc3Cl)n2)cc(OC)c1OCCN1CCOCC1` showed a 50% inhibitory concentration (IC50) greater than 4.5 µg/mL.
The figure for `CN(c1cccc(Cl)c1)c1ncnc(Cl)n1` is greater than 4.5 µg/mL.
The compound `COC(=O)c1ccc(-c2cc(Nc3ncnc(NCCc4c[nH]c5ccccc45)n3)[nH]n2)cc1` gave a half-maximal inhibitory concentration (IC50) of 0.4 to 2.4 µg/mL (≈ 0.88 to 5.28 µM).
As for `O=S(=O)(O)c1cccc(Nc2ncnc(Nc3cc(-c4ccco4)[nH]n3)n2)c1`, the half-inhibitory concentration (IC50) was less than 0.4 µg/mL.
Consider `COc1cc(Nc2ncnc(NN3CCOCC3)n2)cc(OC)c1OC`, for which the IC50 was greater than 4.5 µg/mL.
